# “And” between values parts separate entries of the source, which are not always exact repeats. Identical values can stand only once.
# Tests used:
# [1] = in vitro; conditions: human, hepatocytes
# [2] = Intrinsic permeability in Caco-2 cells with efflux inhibited; conditions: human, Caco-2
# [3] = LogD pH 7.4, octanol/phosphate buffer; conditions: octanol/phosphate buffer, pH 7.4
# [4] = Free fraction in HLM incubation, equilibrium dialysis; format: in vitro ADME, human
# [5] = CLint in NADPH-supplemented human liver microsomes; conditions: human
# Protocol: (§1) Calculation and scaling of CLint,u was done using the equation below and 45 mg of microsomal protein per gram of liver. HLMCLint,u=ln2/x1/t1/2(min)xmLincubation/mgmicrosomalproteinx45mgmicrosomalprotein/gliverx21gliver/kg/Fuinc
# [6] = CLint in NADH-supplemented human liver microsomes; conditions: human, pH 7.4
# Protocol: as §1
# [7] = Free savolitinib in incubation with 150 mg/mL bovine serum albumin; format: in vitro ADME; conditions: BSA final 150 mg/mL
# [8] = healthy volunteers; cited from earlier work
# [9] = system: rat hepatocytes; assay: Free fraction in rat hepatocytes as surrogate for HH, equilibrium dialysis; format: in vitro ADME; conditions: fraction unbound, measured or estimated by in silico models of Fuinc
# [10] = as above; format: in vitro ADME; conditions: rat hepatocytes (surrogate for human hepatocytes); printed as HH; rat hepatocytes used as surrogate
# [11] = target: recombinant human CYP3A4 (Homo sapiens, UniProt P08684); assay: Recombinant CYP panel, savolitinib CLint; format: in vitro ADME
# recombinant human CYP3A4, sequence (P08684 whole entry): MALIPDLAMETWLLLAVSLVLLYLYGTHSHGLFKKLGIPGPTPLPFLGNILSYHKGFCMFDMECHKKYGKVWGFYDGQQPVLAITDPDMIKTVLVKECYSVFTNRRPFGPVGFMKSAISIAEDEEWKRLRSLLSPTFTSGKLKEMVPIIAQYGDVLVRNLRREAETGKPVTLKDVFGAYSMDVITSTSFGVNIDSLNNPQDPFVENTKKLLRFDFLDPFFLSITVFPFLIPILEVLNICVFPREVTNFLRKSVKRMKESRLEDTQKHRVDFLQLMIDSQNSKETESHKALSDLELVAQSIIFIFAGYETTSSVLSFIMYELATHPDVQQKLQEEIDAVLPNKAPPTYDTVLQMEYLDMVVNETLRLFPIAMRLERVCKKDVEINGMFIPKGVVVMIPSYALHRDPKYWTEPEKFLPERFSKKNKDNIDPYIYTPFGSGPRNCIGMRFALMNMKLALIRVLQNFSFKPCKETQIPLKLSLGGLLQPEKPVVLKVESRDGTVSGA
# Protocol: (§2) […]
# (§3) The clearance of savolitinib was
# (§4) The average intrinsic clearance was
# (§5) concentrations (final 0.1 µM).
# [12] = target: recombinant human CYP2D6 (Homo sapiens, UniProt P10635); assay: Recombinant CYP panel, savolitinib CLint; format: in vitro ADME
# recombinant human CYP2D6, sequence (P10635 whole entry): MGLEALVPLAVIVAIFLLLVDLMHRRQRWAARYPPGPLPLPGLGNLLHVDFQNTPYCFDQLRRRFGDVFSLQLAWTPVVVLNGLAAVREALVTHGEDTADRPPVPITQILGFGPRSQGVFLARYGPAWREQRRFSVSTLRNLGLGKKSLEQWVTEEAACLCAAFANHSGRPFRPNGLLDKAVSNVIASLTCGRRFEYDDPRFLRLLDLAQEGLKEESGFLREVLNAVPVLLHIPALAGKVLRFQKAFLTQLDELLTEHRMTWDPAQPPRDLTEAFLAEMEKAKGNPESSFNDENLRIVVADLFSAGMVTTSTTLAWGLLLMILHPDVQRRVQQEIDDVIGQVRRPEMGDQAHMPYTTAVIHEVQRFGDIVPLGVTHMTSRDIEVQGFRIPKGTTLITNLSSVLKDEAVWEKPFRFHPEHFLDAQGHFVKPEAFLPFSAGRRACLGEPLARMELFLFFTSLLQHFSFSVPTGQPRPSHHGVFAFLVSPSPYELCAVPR
# Protocol: as §2, §3, §4, §5
# [13] = target: recombinant human CYP3A5 (Homo sapiens, UniProt P20815); assay: Recombinant CYP panel, savolitinib CLint; format: in vitro ADME
# recombinant human CYP3A5, sequence (P20815 whole entry): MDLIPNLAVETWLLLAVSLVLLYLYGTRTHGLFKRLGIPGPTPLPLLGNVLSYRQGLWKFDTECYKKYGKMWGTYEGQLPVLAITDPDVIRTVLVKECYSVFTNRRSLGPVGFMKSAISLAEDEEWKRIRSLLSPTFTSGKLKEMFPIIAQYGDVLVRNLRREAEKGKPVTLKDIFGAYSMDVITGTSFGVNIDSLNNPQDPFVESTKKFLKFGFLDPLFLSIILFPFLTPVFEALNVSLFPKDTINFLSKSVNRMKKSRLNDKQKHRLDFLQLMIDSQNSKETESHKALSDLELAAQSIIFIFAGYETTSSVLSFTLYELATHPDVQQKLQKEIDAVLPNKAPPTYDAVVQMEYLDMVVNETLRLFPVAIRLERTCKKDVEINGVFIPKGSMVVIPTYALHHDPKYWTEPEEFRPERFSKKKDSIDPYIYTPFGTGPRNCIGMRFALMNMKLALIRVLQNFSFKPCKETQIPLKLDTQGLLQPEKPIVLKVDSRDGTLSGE
# Protocol: as §2, §3, §4, §5
# [14] = target: T1, recombinant human CYP2A6 (Homo sapiens, UniProt P11509); assay: Recombinant CYP panel, savolitinib CLint; format: in vitro ADME
# T1 sequence (P11509 1-494): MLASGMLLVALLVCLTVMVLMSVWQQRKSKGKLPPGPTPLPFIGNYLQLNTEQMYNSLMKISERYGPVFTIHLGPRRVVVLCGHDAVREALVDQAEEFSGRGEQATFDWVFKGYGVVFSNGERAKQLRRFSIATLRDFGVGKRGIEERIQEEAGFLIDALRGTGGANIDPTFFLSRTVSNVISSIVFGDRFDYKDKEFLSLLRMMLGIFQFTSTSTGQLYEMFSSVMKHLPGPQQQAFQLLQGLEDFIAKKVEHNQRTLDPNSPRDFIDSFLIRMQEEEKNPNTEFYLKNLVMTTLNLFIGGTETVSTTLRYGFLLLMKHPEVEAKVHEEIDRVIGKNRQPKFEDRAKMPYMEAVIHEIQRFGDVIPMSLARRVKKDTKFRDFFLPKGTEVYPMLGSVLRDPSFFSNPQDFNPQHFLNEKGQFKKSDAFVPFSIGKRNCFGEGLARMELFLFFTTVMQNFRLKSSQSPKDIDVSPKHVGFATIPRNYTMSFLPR
# Protocol: as §2, §3, §4, §5
# [15] = target: recombinant human CYP2C19 (Homo sapiens, UniProt P33261); assay: Recombinant CYP panel, savolitinib CLint; format: in vitro ADME; conditions: CYP2C19, inter-system extrapolation factors
# recombinant human CYP2C19, sequence (P33261 whole entry): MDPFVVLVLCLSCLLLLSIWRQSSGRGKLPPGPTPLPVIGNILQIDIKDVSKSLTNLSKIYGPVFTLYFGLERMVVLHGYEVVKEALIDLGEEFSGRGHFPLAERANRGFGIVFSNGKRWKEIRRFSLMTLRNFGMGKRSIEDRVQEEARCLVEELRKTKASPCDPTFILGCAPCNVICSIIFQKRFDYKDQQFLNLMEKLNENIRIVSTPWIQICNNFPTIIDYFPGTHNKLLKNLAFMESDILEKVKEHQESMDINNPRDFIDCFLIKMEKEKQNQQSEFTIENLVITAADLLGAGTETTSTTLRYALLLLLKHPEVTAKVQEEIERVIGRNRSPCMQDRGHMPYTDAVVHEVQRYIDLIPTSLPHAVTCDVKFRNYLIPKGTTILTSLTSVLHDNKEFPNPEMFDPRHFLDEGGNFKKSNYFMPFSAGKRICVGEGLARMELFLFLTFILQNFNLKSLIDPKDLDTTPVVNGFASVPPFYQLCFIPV
# Protocol: as §2, §3, §4, §5
# [16] = target: T2, recombinant human CYP1A2 (Homo sapiens, UniProt P05177); assay: Recombinant CYP panel, savolitinib CLint; format: in vitro ADME
# T2 sequence (P05177 1-516): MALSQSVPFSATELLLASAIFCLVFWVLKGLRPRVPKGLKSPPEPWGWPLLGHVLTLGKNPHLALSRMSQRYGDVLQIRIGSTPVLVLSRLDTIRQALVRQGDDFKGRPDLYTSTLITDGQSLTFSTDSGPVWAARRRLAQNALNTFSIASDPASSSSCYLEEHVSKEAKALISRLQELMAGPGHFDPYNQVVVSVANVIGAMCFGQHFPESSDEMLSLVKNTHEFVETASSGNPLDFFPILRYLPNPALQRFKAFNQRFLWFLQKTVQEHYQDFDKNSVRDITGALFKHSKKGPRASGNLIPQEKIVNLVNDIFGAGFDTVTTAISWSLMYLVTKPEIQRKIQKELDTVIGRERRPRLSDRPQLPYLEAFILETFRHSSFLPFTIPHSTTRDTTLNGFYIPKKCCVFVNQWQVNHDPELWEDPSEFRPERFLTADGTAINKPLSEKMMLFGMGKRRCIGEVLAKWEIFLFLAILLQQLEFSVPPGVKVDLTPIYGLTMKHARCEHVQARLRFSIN
# Protocol: as §2, §3, §4, §5
# [17] = cited from earlier work
# [18] = target: T3, recombinant CYP3A4-POR (Homo sapiens, UniProt P08684); assay: Savolitinib incubation with recombinant CYP3A4-POR Supersomes; format: in vitro ADME; conditions: CYP3A4-POR 100 pmol/mL, 1 µM, 1 h (Fig. 2b)
# T3 construct: purchased 456202
# T3 sequence (P08684 whole entry): as the sequence (P08684 whole entry) above
# Protocol: For detailed comparisons between recombinant CYP1A2 and CYP3A4 (Fig. 2B, C), Supersomes were used (CYP1A2, catalogue number 456203, CYP3A4, catalogue number 456202). […] The concentration of savolitinib metabolites M2 and M4 formed were determined from standard curves obtained by spiking the appropriate concentrations of M2 and M4 into recombinant enzymes (in the absence of NADPH) and processing in the same way as the samples.
# [19] = target: T4, CYP1A2-Cytb5R (Homo sapiens, UniProt P05177); assay: Turnover by non-canonical recombinant CYP1A2-Cytb5R; format: in vitro ADME; conditions: noncanonical CYP1A2-Cytb5R
# T4 construct: purchased BioIVT (custom synthesis) CE00001 (CYP1A2), batch CPD034-1A2-30; host or cells: bactosomes
# T4 sequence (P05177 1-516): T2 sequence (P05177 1-516)
# Description: As commercial recombinant human CYPs co-express the individual CYP and reductase with an option to include cytochrome b5. A custom synthesis co-expressing CYP3A4 or CYP1A2 and Cytb5R plus cytochrome b5 was, therefore, ordered from BioIVT and the bactosomes were compared with canonical CYP-POR enzymes plus cytochrome b5.
structure (smiles),measurement,setting,value
C[C@@H](c1ccc2nccn2c1)n1nnc2ncc(-c3cnn(C)c3)nc21 [Savolitinib],hepatocyte CLint at 1 µM,[1]; both,1 µL/min/1e6 cells
same,CLint scaled at 1 µM,"[1]; HH_scaled_CLint,u",2.98 mL/min/kg
same,"Papp at 2 h, 10 µM",[2],53.7 ×10⁻⁶ cm/s
same,logD,[3],1.81
same,fu_HLM,"[4]; fraction unbound, measured or estimated by in silico models of Fuinc",0.935
same,"fraction unbound at 4 h, 1 µM","[4]; human, human liver microsomes, pH 7.4",0.935
same,microsomal CLint at 1 µM,"[5]; human liver microsomes + NADPH, pH 7.4",9.8 µL/min/mg
same,CLint scaled at 1 µM,"[5]; human liver microsomes, pH 7.4, NADPH_HLM_scaled_CLint,u, Fig. 4a,d",9.9 mL/min/kg
same,microsomal CLint at 1 µM,[6]; human liver microsomes + NADH,1.6 µL/min/mg
same,CLint scaled at 1 µM,[6]; human liver microsomes,1.62 mL/min/kg
same,free savolitinib,[7],17%
same,"oxidation by aldehyde oxidase, share of the dose",[8],19 % of the dose
same,"oxidation/hydrolysis on the imidazopyridine moiety, share of the dose",[8],16 % of the dose
same,fu_ratHH,[9],0.847
same,"fraction unbound at 4 h, 1 µM",[10],0.847
same,CLint,"[11]; CYP3A4, average of three",0.489 ± 0.0278 µL/min/pmol CYP
same,% contribution,"[11]; CYP3A4, inter-system extrapolation factors",83%
same,CLint,"[12]; CYP2D6, average of three",0.309 ± 0.0010 µL/min/pmol CYP
same,% contribution,"[12]; CYP2D6, inter-system extrapolation factors",1.8%
same,% contribution,"[13]; CYP3A5, inter-system extrapolation factors",12%
same,CLint,"[13]; CYP3A5, only two experiments measurable",0.0939 µL/min/pmol CYP
same,% contribution,"[14]; CYP2A6, inter-system extrapolation factors",0.2%
same,CLint,"[14]; CYP2A6, only one experiment measurable",0.0148 µL/min/pmol CYP
same,% contribution,[15],1.9%
same,% contribution,"[16]; CYP1A2, inter-system extrapolation factors",1.6%
same,CLint,"[16]; CYP1A2, only two experiments measurable",0.0386 µL/min/pmol CYP
same,free in normal plasma,[17],29%
same,Percentage savolitinib remaining,[18],1.366% and 5.612% and 4.281%
same,turnover (metabolite formation or disappearance of parent),[19],no detectable turnover

# Source: PMC12592420, “A mismatch in enzyme-redox partnerships underlies divergent cytochrome P450 activities between human hepatocytes and microsomes” (Communications Biology, 2025)
